Reference: US7754440B2 (priority 2001, dated 2010)
“Also recorded” adds a separate entry of the source.

Columns and labels:
Format in all cases: cell-based
Nav1.3 sodium channel [1] = target: T1, Nav1.3 sodium channel (Homo sapiens, UniProt Q9NY46); test: Na+ depletion/repletion persistent current assay with single-wavelength membrane potential dye on FLIPR-Tetra
Nav1.3 sodium channel [2] = target: T1, Nav1.3 sodium channel; test: cell-based; conditions: for IC50: read-out: IC50 obtained using patch-clamp
Nav1.3 sodium channel [3] = target: T1, Nav1.3 sodium channel; test: Persistent sodium current screening assay using FRET dyes on VIPR (Na+-dependent depolarization); conditions: tetracaine 10 μM; HEK-Nav 1.3 cells; FIG. 10
HEK-Nav 1.3 cells = test: Counter-screen: K+-dependent depolarization (VIPR FRET); conditions: tetracaine 10 μM; K+ final 80 mM; FIG. 10

T1 sequence (Q9NY46 whole entry): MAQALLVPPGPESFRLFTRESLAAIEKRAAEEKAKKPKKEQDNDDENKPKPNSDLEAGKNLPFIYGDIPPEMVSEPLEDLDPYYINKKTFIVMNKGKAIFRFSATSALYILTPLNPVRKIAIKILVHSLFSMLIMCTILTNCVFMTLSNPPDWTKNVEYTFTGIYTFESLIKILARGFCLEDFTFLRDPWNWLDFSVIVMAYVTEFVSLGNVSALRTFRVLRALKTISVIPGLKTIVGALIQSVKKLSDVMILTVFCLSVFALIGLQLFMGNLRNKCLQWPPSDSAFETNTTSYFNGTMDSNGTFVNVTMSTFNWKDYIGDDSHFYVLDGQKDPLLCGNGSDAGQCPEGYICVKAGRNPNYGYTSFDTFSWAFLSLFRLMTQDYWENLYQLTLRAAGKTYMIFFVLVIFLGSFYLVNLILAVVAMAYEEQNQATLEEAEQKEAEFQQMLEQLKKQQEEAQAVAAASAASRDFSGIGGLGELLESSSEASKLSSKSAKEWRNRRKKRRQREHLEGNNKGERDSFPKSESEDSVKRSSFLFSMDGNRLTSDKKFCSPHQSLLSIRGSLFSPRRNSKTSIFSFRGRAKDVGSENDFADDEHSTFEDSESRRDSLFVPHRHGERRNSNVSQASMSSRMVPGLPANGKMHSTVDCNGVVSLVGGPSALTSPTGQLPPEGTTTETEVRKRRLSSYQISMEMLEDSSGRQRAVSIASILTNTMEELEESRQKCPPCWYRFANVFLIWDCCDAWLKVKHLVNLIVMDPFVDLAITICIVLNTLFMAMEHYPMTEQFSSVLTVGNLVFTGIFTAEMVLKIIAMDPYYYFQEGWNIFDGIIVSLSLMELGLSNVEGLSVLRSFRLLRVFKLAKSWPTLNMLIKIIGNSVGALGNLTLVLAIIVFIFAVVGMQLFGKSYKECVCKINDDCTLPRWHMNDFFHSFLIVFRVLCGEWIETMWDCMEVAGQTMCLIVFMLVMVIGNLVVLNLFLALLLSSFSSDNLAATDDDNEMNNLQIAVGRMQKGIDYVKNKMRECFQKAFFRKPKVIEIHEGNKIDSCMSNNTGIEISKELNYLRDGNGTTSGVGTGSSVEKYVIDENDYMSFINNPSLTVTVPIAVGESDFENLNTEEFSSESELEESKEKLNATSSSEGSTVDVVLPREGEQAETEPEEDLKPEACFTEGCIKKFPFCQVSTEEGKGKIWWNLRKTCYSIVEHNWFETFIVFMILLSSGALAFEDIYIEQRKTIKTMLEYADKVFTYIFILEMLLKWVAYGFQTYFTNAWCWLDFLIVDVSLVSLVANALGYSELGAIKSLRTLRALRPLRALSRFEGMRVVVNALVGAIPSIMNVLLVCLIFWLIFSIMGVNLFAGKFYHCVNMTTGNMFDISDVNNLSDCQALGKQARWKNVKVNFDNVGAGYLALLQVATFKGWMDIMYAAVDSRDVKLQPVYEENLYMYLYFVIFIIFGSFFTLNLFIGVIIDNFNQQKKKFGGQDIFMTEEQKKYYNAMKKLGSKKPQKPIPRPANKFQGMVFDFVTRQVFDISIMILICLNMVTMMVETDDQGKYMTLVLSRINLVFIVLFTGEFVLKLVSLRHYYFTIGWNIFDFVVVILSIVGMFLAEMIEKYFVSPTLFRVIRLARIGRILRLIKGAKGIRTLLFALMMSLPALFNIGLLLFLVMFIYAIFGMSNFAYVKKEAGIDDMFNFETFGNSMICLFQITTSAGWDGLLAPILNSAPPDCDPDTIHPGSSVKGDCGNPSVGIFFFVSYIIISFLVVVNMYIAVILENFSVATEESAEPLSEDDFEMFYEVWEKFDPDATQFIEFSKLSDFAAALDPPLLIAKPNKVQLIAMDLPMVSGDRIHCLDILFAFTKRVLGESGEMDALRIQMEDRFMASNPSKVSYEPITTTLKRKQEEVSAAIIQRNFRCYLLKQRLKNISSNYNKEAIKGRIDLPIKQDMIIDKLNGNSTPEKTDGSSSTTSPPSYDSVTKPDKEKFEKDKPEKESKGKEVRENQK

TTX
Na+ channel dependent component of the fluorescence response (Nav1.3 sodium channel [1]): blocked; also recorded: the initial response is lost
IC50 (Nav1.3 sodium channel [1]; read-out: IC50 persistent sodium current, FLIPR-Tetra assay): 0.005 µM
Block of persistent current (Nav1.3 sodium channel [2]): completely blocked
Block of transient current (Nav1.3 sodium channel [2]): completely blocked
IC50 (Nav1.3 sodium channel [2]): 0.005 µM

CCCCNc1ccc(C(=O)OCCN(C)C)cc1 [Tetracaine]
Na+-dependent change in Rf/Ri (Na+-dependent depolarization) (Nav1.3 sodium channel [3]): inhibited
K+-dependent change in Rf/Ri (K+-dependent depolarization) (HEK-Nav 1.3 cells): not

CCN(CC)CC(=O)Nc1c(C)cccc1C [Lidocaine]
IC50 (Nav1.3 sodium channel [1]): 32 µM
IC50 (Nav1.3 sodium channel [2]; comparison values for the persistent current assay): 90 µM
